As a reminder, the IC50 is the concentration needed to halve the response being measured.

The values that follow come from US9850247B2 (Almac Discovery Limited, priority 2013, dated 2017).

For one series, the target named is T1, Wee-1 kinase (Homo sapiens, UniProt P30291).
T1 construct: purchased Invitrogen PV3817
The experiment in a line: Measurement of Wee-1 kinase activity (ADP-Glo luminescent kit). The class given is biochemical. In short, it runs like this:
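Activated Wee-1 was pre-incubated 30 min at RT with compound in 40 mM Tris-HCl, 20 mM MgCl2, 0.1 mg/mL BSA and 2 mM DTT. The reaction was started with an aliquot of 2.0 μg/mL poly(Lys,Tyr 4:1) plus 30 μM ATP and run 1 h at RT. ADP-Glo luminescence gave IC50 by non-linear fit.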
For orientation: ADP-Glo first removes unused ATP, then detects ADP through luciferase.

Series [1] is described as follows: CLint estimates using human liver microsomes (Method 4). Type of series: in vitro ADME. Conditions: pH 7.4, 1 μM compound, read-out: Mics - CLint (HLM CLint). In short, it runs like this: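 Compound at 1 μM (0.1% DMSO) incubated with human liver microsomes (0.5 mg protein/mL) in 0.1 M phosphate pH 7.4 at 37 °C, started with 1 mM NADPH. Samples taken 2–50 min, quenched in methanol, measured by LC/MS/MS (MRM). Half-life and CLint derived from the slope of ln peak area versus time.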

Series [2] concerns phospho-cdc2 (Tyr15) in HT-29 cells. The experiment in a line: Effect on Cdc2 phosphorylation at Tyr15, Cell-Based ELISA Base Kit (Method 3). Conditions: Homo sapiens, HT-29, 8 h, eight hours incubation, normalized to total cdc2, read-out: HT29 pCDC2 method 3. The method, then: Method 3: Determining the Effect of Compounds on the Cdc2 phosphorylation at Tyr15, using a Cell-Based ELISA Base Kit (R&D Systems, KCB001)
The colorectal cancer cell line, HT-29 was purchased from the ATCC and maintained in McCoy's 5 A medium (Gibco®, Life technologies) supplemented with 10% Foetal Calf Serum (FCS).
The cells were trypsinised and counted, 100 μL of 8000 cells was seeded into each well of a clear-bottom black 96-well microplate and incubated overnight to allow adherence to the surface, at 37° C. and 5% CO2 in a cell culture incubator.
Test compounds were formulated in DMSO and diluted in cell culture medium supplemented with FCS. Grow medium was removed from cells and medium containing compounds dilutions was added to each well. The plate was returned to the incubator for an additional eight hours of incubation at 37° C. and 5% CO2.
Post incubation cells were fixed by replacing the compounds supplemented medium with 100 μL of 4% formaldehyde in 1× phosphate buffered saline (PBS), for 20 minutes at room temperature. Formaldehyde solution was removed and cells were washed three times with PBS. The Cell-Based ELISA assay (R&D Systems) was carried out immediately after cell fixation or the plate was sealed and fixed cells were stored in PBS at 4° C. until required (no more than two weeks).
To continue the assay, PBS was removed and cells were washed 3 times for 5 minutes with 200 μL of 1× wash buffer. Each wash step was carried out with gentle shaking. Following washes, 100 μL of 0.6% H2O2 in 1× wash buffer (quenching buffer) was added, plate was sealed and incubated for 20 minutes at room temperature. Post incubation cells were washes 3 times for 5 minutes with 200 μL of 1× wash buffer, with gentle shaking. 100 μL of blocking buffer was added to each well, the plate was re-sealed and incubated at room temperature for 1 h.
After blocking, cells were washed as described above. A primary antibody mixture was prepared by mixing the two primary antibodies, a rabbit monoclonal antibody for phospho-cdc2 (Tyr15) (Cell Signaling, #4539) and mouse monoclonal antibody for total cdc2 p34 (Santa Cruz Biotechnology, sc-54), diluted 1:25 and 1:50 in blocking buffer, respectively. 60 μL of primary antibody mixture was added to each well, the plate was sealed and incubated overnight at 4° C.
The primary antibodies were removed and cells were washed as previously described. 100 μL of secondary antibody mixture, containing horseradish-peroxidase (HRP)-conjugated goat anti-rabbit IgG and alkaline phosphatase (AP)-conjugated goat anti-mouse IgG, diluted 1:100 in blocking buffer, was added to each test well. The plate was re-sealed and incubated for 2 hours at room temperature.
The secondary antibodies were removed and cells washed 2 times with wash buffer, followed by 2 washes with PBS. Each wash step was carried out for 5 minutes with gentle shaking. PBS was removed and 75 μL of fluorogenic substrate for HRP (substrate F1) added to each well. The plate was sealed and incubated for 1 h at room temperature, in the dark. 75 μL of fluorogenic substrate for AP (substrate F2) was added directly to each well, plate re-sealed and incubated for additional 40 minutes at room temperature, protected from direct light.
Following incubation fluorescence from each well was read at 600 nm (signal from substrate 1, phosphorylated protein) and then at 450 nm (signal from substrate 2, total protein).
The percentage of phospho-cdc2 was calculated compared to DMSO control, normalized to the total cdc2 and plotted versus the concentration of inhibitor, using GraphPad Prism. Data was fitted using a non-linear regression analysis and EC50 values generated.
On the technique in general: In an ELISA, binding on a coated surface is turned into a signal by an enzyme label.

T1 sequence (P30291 whole entry): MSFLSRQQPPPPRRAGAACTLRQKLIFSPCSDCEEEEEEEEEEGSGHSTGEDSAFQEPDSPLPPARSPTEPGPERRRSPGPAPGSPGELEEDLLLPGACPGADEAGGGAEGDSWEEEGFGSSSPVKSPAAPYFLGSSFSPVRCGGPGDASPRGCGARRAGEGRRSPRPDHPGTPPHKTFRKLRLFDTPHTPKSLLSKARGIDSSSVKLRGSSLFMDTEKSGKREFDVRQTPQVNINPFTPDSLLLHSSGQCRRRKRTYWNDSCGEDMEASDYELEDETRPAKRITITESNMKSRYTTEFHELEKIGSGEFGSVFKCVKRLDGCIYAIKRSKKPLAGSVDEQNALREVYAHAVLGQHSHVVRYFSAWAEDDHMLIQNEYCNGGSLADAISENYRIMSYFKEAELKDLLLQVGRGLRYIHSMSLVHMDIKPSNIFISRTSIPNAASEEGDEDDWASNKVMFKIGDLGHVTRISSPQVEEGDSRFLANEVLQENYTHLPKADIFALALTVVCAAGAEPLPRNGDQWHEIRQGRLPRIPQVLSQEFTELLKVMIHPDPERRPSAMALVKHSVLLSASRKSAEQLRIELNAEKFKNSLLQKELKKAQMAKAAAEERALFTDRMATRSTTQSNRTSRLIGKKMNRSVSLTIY

For `CN1Cc2cc(Nc3ncc4c(n3)N(C)CN(c3c(Cl)cccc3Cl)C4=O)ccc2C2(CC2)C1` [Example 76, 3-(2,6-dichlorophenyl)-1-methyl-7-((2′-methyl-2′,3′-dihydro-1′H-spiro[cyclopropane-1,4′-isoquinolin]-7′-yl)amino)-2,3-dihydropyrimido[4,5-d]pyrimidin-4(1H)-one], the IC50 on Wee-1 kinase was not above 10 nM. Moreover, the microsomal CLint at 1 μM in series [1] was not below 50 µL/min/mg. Also, the EC50 in series [2] lay within 100 to 1000 nM.

`CNCc1cc(Nc2ncc3c(n2)N(C)CN(c2c(Cl)cccc2Cl)C3=O)ccc1N1CCCC1` [Example 137, 3-(2,6-dichlorophenyl)-1-methyl-7-((3-((methylamino)methyl)-4-(pyrrolidin-1-yl)phenyl)amino)-2,3-dihydropyrimido[4,5-d]pyrimidin-4(1H)-one]: the IC50 on Wee-1 kinase is 10 to 100 nM. Moreover, the microsomal CLint at 1 μM in series [1] was not below 50 µL/min/mg. Moreover, the EC50 in series [2] is 100 to 1000 nM.

Turning to `C[C@@H]1CN(c2ccc(Nc3ncc4c(n3)N(C)CN(c3c(Cl)cccc3Cl)C4=O)cc2CO)C[C@H](C)N1` [Example 158, 3-(2,6-dichlorophenyl)-7-((4-((3S,5R)-3,5-dimethylpiperazin-1-yl)-3-(hydroxymethyl)phenyl)amino)-1-methyl-2,3-dihydropyrimido[4,5-d]pyrimidin-4(1H)-one], the IC50 at Wee-1 kinase was not above 10 nM. The microsomal CLint at 1 μM in series [1] was not above 15 µL/min/mg. The EC50 in series [2] is 100 to 1000 nM.

Consider `C[C@@H]1CN(c2ccc(Nc3ncc4c(n3)N(C)CN(c3c(Cl)cccc3Cl)C4=O)cc2C(O)C(F)F)CCN1` (stereo partly drawn) [Example 134, 3-(2,6-dichlorophenyl)-7-((3-(2,2-difluoro-1-hydroxyethyl)-4-((R)-3-methylpiperazin-1-yl)phenyl)amino)-1-methyl-2,3-dihydropyrimido[4,5-d]pyrimidin-4(1H)-one], for which, at Wee-1 kinase, the IC50 is not above 10 nM. For the same compound, the microsomal CLint at 1 μM in series [1] is not above 15 µL/min/mg. Besides, in series [2], the EC50 is 100 to 1000 nM.

On to `COC[C@@H]1CN(c2ccc(Nc3ncc4c(n3)N(C)CN(c3c(Cl)cccc3Cl)C4=O)cc2)CCN1` [Example 61, (S)-3-(2,6-dichlorophenyl)-7-((4-(3-(methoxymethyl)piperazin-1-yl)phenyl)amino)-1-methyl-2,3-dihydropyrimido[4,5-d]pyrimidin-4(1H)-one], for which, on Wee-1 kinase, the IC50 was 10 to 100 nM. In series [1], the microsomal CLint at 1 μM is not above 15 µL/min/mg. Besides, the EC50 in series [2] lay within 100 to 1000 nM.

With `COC[C@H]1CN(c2ccc(Nc3ncc4c(n3)N(C)CN(c3c(Cl)cccc3Cl)C4=O)cc2C(O)C(F)F)CCN1` (single isomer, unassigned) [Example 162], the IC50 at Wee-1 kinase is not above 10 nM. For the same compound, in series [1], the microsomal CLint at 1 μM was 15 to 50 µL/min/mg. In addition, the EC50 in series [2] was 100 to 1000 nM.

Consider `CNCc1cc(Nc2ncc3c(n2)N(C)CN(c2c(Cl)cccc2Cl)C3=O)ccc1N1CCS(=O)(=O)CC1` [Example 146, 3-(2,6-dichlorophenyl)-7-((4-(1,1-dioxidothiomorpholino)-3-((methylamino)methyl)phenyl)amino)-1-methyl-2,3-dihydropyrimido[4,5-d]pyrimidin-4(1H)-one], for which the IC50 at Wee-1 kinase is not above 10 nM. Also, the microsomal CLint at 1 μM in series [1] is not above 15 µL/min/mg. Further, in series [2], the EC50 was not below 1000 nM.

`CN1CN(c2c(Cl)cccc2Cl)C(=O)c2cnc(Nc3ccc(N4CCNC(C)(C)C4)cc3)nc21` [Example 96, 3-(2,6-dichlorophenyl)-7-((4-(3,3-dimethylpiperazin-1-yl)phenyl)amino)-1-methyl-2,3-dihydropyrimido[4,5-d]pyrimidin-4(1H)-one]: the IC50 on Wee-1 kinase is not above 10 nM. In addition, in series [1], the microsomal CLint at 1 μM is 15 to 50 µL/min/mg. The EC50 in series [2] fell in the range of 100 to 1000 nM.

Consider `CN1CN(c2c(Cl)cccc2Cl)C(=O)c2cnc(Nc3ccc(C4CCNCC4)c(CO)c3)nc21` [Example 167, 3-(2,6-dichlorophenyl)-7-((3-(hydroxymethyl)-4-(piperidin-4-yl)phenyl)amino)-1-methyl-2,3-dihydropyrimido[4,5-d]pyrimidin-4(1H)-one], for which the IC50 at Wee-1 kinase is not above 10 nM. Also, the microsomal CLint at 1 μM in series [1] is not above 15 µL/min/mg. Further, the EC50 in series [2] is not below 1000 nM.

Turning to `COC[C@H]1CN(c2ccc(Nc3ncc4c(n3)N(C)CN(c3c(F)cccc3Cl)C4=O)cc2)CCN1` [Example 126, (R)-3-(2-chloro-6-fluorophenyl)-7-((4-(3-(methoxymethyl)piperazin-1-yl)phenyl)amino)-1-methyl-2,3-dihydropyrimido[4,5-d]pyrimidin-4(1H)-one], at Wee-1 kinase, the IC50 lay in the range of 10 to 100 nM. In addition, in series [1], the microsomal CLint at 1 μM is not above 15 µL/min/mg. In addition, in series [2], the EC50 is not below 1000 nM.

As for `CCN1CCN(c2ccc(Nc3ncc4c(n3)N(C)CN(c3c(Cl)cccc3Cl)C4=O)cc2CO)CC1` [Example 72, 3-(2,6-dichlorophenyl)-7-((4-(4-ethylpiperazin-1-yl)-3-(hydroxymethyl)phenyl)amino)-1-methyl-2,3-dihydropyrimido[4,5-d]pyrimidin-4(1H)-one], the IC50 at Wee-1 kinase was not above 10 nM. Further, the microsomal CLint at 1 μM in series [1] is not above 15 µL/min/mg. For the same compound, in series [2], the EC50 lay in the range of 100 to 1000 nM.

Take `CN1CN(c2c(Cl)cccc2Cl)C(=O)c2cnc(Nc3ccc(N4CCNCC4)c(CNCC(F)(F)F)c3)nc21` [Example 141, 3-(2,6-dichlorophenyl)-1-methyl-7-((4-(piperazin-1-yl)-3-(((2,2,2-trifluoroethyl)amino)methyl)phenyl)amino)-2,3-dihydropyrimido[4,5-d]pyrimidin-4(1H)-one]: the IC50 at Wee-1 kinase is not above 10 nM. Moreover, the microsomal CLint at 1 μM in series [1] was not above 15 µL/min/mg. Moreover, the EC50 in series [2] was not below 1000 nM.

For the compound `Cc1cc(Nc2ncc3c(n2)N(C)CN(c2c(F)cccc2Cl)C3=O)ccc1N1CCNCC1` [Example 55, 3-(2-chloro-6-fluorophenyl)-1-methyl-7-((3-methyl-4-(piperazin-1-yl)phenyl)amino)-2,3-dihydropyrimido[4,5-d]pyrimidin-4(1H)-one], on Wee-1 kinase, the IC50 was not above 10 nM. In series [1], the microsomal CLint at 1 μM was not above 15 µL/min/mg. The EC50 in series [2] lay in the range of 100 to 1000 nM.

Regarding `CN1CCN(c2ccc(Nc3ncc4c(n3)N(C)CN(c3c(Cl)cccc3Cl)C4=O)cc2)[C@H](CO)C1` [Example 128, (S)-3-(2,6-dichlorophenyl)-7-((4-(2-(hydroxymethyl)-4-methylpiperazin-1-yl)phenyl)amino)-1-methyl-2,3-dihydropyrimido[4,5-d]pyrimidin-4(1H)-one], the IC50 at Wee-1 kinase lay within 10 to 100 nM. Further, in series [1], the microsomal CLint at 1 μM is 15 to 50 µL/min/mg. Besides, in series [2], the EC50 was in the range of 100 to 1000 nM.

`CN(C)CC(=O)N1CCN(c2ccc(Nc3ncc4c(n3)N(C)CN(c3c(Cl)cccc3Cl)C4=O)cc2CO)CC1` [Example 161, 3-(2,6-dichlorophenyl)-7-((4-(4-(2-(dimethylamino)acetyl)piperazin-1-yl)-3-(hydroxymethyl)phenyl)amino)-1-methyl-2,3-dihydropyrimido[4,5-d]pyrimidin-4(1H)-one]: the IC50 on Wee-1 kinase was not above 10 nM. Also, the microsomal CLint at 1 μM in series [1] is 15 to 50 µL/min/mg. In addition, the EC50 in series [2] is 100 to 1000 nM.

Consider `CN1CN(c2c(Cl)cccc2Cl)C(=O)c2cnc(Nc3ccc(N4CCN(C)C(C)(C)C4)cc3)nc21` [Example 63, 3-(2,6-dichlorophenyl)-1-methyl-7-((4-(3,3,4-trimethylpiperazin-1-yl)phenyl)amino)-2,3-dihydropyrimido[4,5-d]pyrimidin-4(1H)-one], for which, on Wee-1 kinase, the IC50 was not above 10 nM. Besides, the microsomal CLint at 1 μM in series [1] is 15 to 50 µL/min/mg. In addition, the EC50 in series [2] was 100 to 1000 nM.
